How the values were obtained:
human TYRO3 (455-end) = molecular target: T1, human TYRO3 (455-end) (Homo sapiens, UniProt Q06418); experiment: HTRF kinase activity biochemical assay, TYRO3; conditions: 10 μM ATP, 30 minutes pre-incubation; read-out: HTRF TYRO IC50
T1 construct: TYRO3 (455-end); purchased SignalChem, Canada
T1 sequence (Q06418 455-890 limits assumed): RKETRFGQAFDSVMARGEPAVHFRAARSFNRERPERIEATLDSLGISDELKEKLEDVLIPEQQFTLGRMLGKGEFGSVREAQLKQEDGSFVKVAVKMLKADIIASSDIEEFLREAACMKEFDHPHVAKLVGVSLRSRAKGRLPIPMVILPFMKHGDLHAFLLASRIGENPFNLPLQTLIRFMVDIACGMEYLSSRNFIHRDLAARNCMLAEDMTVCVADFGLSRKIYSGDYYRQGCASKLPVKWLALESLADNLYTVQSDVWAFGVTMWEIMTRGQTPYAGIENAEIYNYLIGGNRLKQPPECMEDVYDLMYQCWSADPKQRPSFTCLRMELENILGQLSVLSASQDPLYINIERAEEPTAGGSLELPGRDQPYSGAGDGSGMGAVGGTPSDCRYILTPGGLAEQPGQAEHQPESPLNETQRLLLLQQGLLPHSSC
Procedure: (§1) For the SAR (structure-activity relationship) and compound screening, HTRF (Homogeneous Time Resolved Fluorescence) kinase activity assay was employed for all MER, AXL and TYRO3 kinases using Cisbio HTRF® KinEASE™-TK kit (Cisbio, USA). The kit included biotin-labeled TK substrate, streptavidin-XL665, Eu3+-cryptate-labeled TK antibody and HTRF® Detection buffer. There are two main steps in the kinase assay: kinase reaction and detection of phosphorylated substrate. The reaction was carried out in white low volume 384-well plate (Corning, USA) with 25 nL compound in dimethyl sulfoxide in each well. […] After 1 hour incubation at room temperature, the fluorescence intensity was measured with Envision[…] plate reader (PerkinElmer, USA). Upon excitation at 340 nm by UV, the energy from Eu3+ donor of the antibody is transferred to the FRET acceptor XL665, and […] emits light at 665 nm.

human MER (528-end) = molecular target: T2, human MER (528-end) (Homo sapiens, UniProt Q12866); experiment: HTRF kinase activity biochemical assay, MER; conditions: 10 μM ATP, 30 minutes pre-incubation; read-out: HTRF MERTK IC50
T2 construct: human MER (528-end); purchased Camnabio, Japan
T2 sequence (Q12866 528-999 limits assumed): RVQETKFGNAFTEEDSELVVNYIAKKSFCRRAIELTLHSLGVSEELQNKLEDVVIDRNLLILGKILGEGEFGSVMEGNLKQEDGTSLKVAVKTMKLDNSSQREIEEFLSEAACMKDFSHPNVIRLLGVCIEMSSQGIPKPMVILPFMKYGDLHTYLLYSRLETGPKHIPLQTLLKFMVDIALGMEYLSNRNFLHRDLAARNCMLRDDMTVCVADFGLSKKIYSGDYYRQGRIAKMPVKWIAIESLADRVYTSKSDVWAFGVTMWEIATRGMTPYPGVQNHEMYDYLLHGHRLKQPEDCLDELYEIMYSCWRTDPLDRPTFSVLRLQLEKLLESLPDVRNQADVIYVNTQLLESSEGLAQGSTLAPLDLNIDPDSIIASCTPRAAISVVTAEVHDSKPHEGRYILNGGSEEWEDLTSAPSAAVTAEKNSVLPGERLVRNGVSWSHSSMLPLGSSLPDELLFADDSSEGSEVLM
Procedure: as §1

human AXL (473-end) = molecular target: T3, human AXL (473-end) (Homo sapiens, UniProt P30530); experiment: HTRF kinase activity biochemical assay, AXL; conditions: 10 μM ATP, 30 minutes pre-incubation
T3 construct: human AXL (473-end); purchased SignalChem, Canada
T3 sequence (P30530 473-894 limits assumed): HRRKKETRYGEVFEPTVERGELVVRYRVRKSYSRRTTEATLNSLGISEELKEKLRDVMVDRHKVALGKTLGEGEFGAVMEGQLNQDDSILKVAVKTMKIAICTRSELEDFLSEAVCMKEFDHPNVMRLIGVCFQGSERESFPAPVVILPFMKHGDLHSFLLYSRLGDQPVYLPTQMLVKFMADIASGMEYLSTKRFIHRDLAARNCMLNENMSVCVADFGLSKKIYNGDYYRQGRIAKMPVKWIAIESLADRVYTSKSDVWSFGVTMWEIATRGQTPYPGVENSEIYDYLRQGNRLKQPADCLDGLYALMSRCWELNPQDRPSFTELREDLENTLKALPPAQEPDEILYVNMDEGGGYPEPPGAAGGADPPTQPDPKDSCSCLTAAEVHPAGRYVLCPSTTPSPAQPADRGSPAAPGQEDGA
Procedure: as §1

| Structure (SMILES) | IC50 (human TYRO3 (455-end)) [nM] | IC50 (human MER (528-end)) [nM] | IC50 (human AXL (473-end)) [nM] |
| --- | --- | --- | --- |
| CN1CCN([C@@H]2CC(C)(C)c3cc(-c4ccc(CO[C@H]5CCC[C@@H]5NC(=O)c5cc(-c6cnn(C)c6)cnc5N)cc4)ccc32)CC1 [Example 145, 2-amino-N-[(1S,2S)-2-({4-[(1R)-3,3-dimethyl-1-(4-methylpiperazin-1-yl)-2,3-dihydro-1H-inden-5-yl]phenyl}methoxy)cyclopentyl]-5-(1-methyl-1H-pyrazol-4-yl)pyridine-3-carboxamide] | > 1000 | 10 to 100 | 10 to 100 |
| Cn1cc(-c2cnc(N)c(C(=O)N[C@H]3CCC[C@@H]3OCc3ccc(-c4ccc5c(n4)C(C)(C)CN5C4CCN(CCO)CC4)cc3)c2)cn1 [Example 113, 2-amino-N-{(1S,2S)-2-[(4-{1-[1-(2-hydroxyethyl)piperidin-4-yl]-3,3-dimethyl-2,3-dihydro-1H-pyrrolo[3,2-b]pyridin-5-yl}phenyl)methoxy]cyclopentyl}-5-(1-methyl-1H-pyrazol-4-yl)pyridine-3-carboxamide] | 100 to 1000 | < 10 | 10 to 100 |
| Cc1cn(C2CCN(CCO)CC2)c2ncc(-c3ccc(CO[C@H]4CCC[C@@H]4NC(=O)c4cc(-c5cnn(C)c5)cnc4N)cc3)cc12 [Example 110, 2-amino-N-{(1S,2S)-2-[(4-{1-[1-(2-hydroxyethyl)piperidin-4-yl]-3-methyl-1H-pyrrolo[2,3-b]pyridin-5-yl}phenyl)methoxy]cyclopentyl}-5-(1-methyl-1H-pyrazol-4-yl)pyridine-3-carboxamide] | 100 to 1000 | < 10 | < 10 |
| Nc1ncc(-c2cccnc2F)cc1C(=O)N[C@H]1CCC[C@@H]1OCc1ccc(-c2ccc3c(c2)CCCC3N2CCN(CCO)CC2)cc1 (stereo partly drawn) [Example 149, 6-amino-2′-fluoro-N-{(1S,2S)-2-[(4-{5-[4-(2-hydroxyethyl)piperazin-1-yl]-5,6,7,8-tetrahydronaphthalen-2-yl}phenyl)methoxy]cyclopentyl}[3,3′-bipyridine]-5-carboxamide] | 10 to 100 | < 10 | < 10 |
| Cn1cc(-c2cnc(N)c(C(=O)N[C@H]3CCC[C@@H]3OCc3ccc(-c4ccc5c(ccn5C5CCN(CCO)CC5)c4)cc3)c2)cn1 [Example 7, 2-amino-N-{(1S,2S)-2-[(4-{1-[1-(2-hydroxyethyl)piperidin-4-yl]-1H-indol-5-yl}phenyl)methoxy]cyclopentyl}-5-(1-methyl-1H-pyrazol-4-yl)pyridine-3-carboxamide] | 100 to 1000 | < 10 | < 10 |
| CC1(C)CC(N2CCN(CCO)CC2)c2ccc(-c3ccc(CO[C@H]4CCC[C@@H]4NC(=O)c4cc(-c5cccnc5F)cnc4N)cc3)cc21 (stereo partly drawn) [Example 119, 6-amino-2′-fluoro-N-{(1S,2S)-2-[(4-{1-[4-(2-hydroxyethyl)piperazin-1-yl]-3,3-dimethyl-2,3-dihydro-1H-inden-5-yl}phenyl)methoxy]cyclopentyl}[3,3′-bipyridine]-5-carboxamide] | 10 to 100 | < 10 | < 10 |
| CC1(C)OCC(CN2CCN(C3CCc4cc(-c5ccc(CO[C@H]6CCC[C@@H]6NC(=O)c6cc(-c7ccc(F)nc7)cnc6N)cc5)ccc43)CC2)O1 (stereo partly drawn) [Example 78, 6-amino-N-[(1S,2S)-2-{[4-(1-{4-[(2,2-dimethyl-1,3-dioxolan-4-yl)methyl]piperazin-1-yl}-2,3-dihydro-1H-inden-5-yl)phenyl]methoxy}cyclopentyl]-6′-fluoro[3,3′-bipyridine]-5-carboxamide] | > 1000 | < 10 | 10 to 100 |
| Nc1ncc(C(F)(F)F)cc1C(=O)N[C@H]1CCC[C@@H]1OCc1ccc(-c2ccc3c(ccn3C3CCN(CCO)CC3)c2)cc1 [Example 21, 2-amino-N-{(1S,2S)-2-[(4-{1-[1-(2-hydroxyethyl)piperidin-4-yl]-1H-indol-5-yl}phenyl)methoxy]cyclopentyl}-5-(trifluoromethyl)pyridine-3-carboxamide] | > 1000 | < 10 | 10 to 100 |
| Nc1ncc(-c2cccnc2F)cc1C(=O)N[C@H]1CCC[C@@H]1OCc1ccc(-c2ccc3c(c2)CC[C@@H]3N2CCN(C[C@H](O)CO)CC2)cc1 [Example 166, 6-amino-N-[(1S,2S)-2-({4-[(1S)-1-{4-[(2S)-2,3-dihydroxypropyl]piperazin-1-yl}-2,3-dihydro-1H-inden-5-yl]phenyl}methoxy)cyclopentyl]-2′-fluoro[3,3′-bipyridine]-5-carboxamide] | 100 to 1000 | – | < 10 |
| Nc1ncc(-c2cccnc2F)cc1C(=O)N[C@H]1CCC[C@@H]1OCc1ccc(-c2ccc3c(c2)CC[C@@H]3N2CCN(CC(O)CO)CC2)cc1 (stereo partly drawn) [Example 102, 6-amino-N-{(1S,2S)-2-[(4-{(1S)-1-[4-(2,3-dihydroxypropyl)piperazin-1-yl]-2,3-dihydro-1H-inden-5-yl}phenyl)methoxy]cyclopentyl}-2′-fluoro[3,3′-bipyridine]-5-carboxamide] | 100 to 1000 | – | < 10 |
| Nc1ncc(-c2ccc(F)nc2)cc1C(=O)N[C@H]1CCC[C@@H]1OCc1ccc(-c2ccc3c(c2)CCC3N2CCN(CC(O)CO)CC2)cc1 (stereo partly drawn) [Example 80, 6-amino-N-{(1S,2S)-2-[(4-{1-[4-(2,3-dihydroxypropyl)piperazin-1-yl]-2,3-dihydro-1H-inden-5-yl}phenyl)methoxy]cyclopentyl}-6′-fluoro[3,3′-bipyridine]-5-carboxamide] | 100 to 1000 | – | < 10 |
| Nc1ncc(-c2cccnc2F)cc1C(=O)N[C@H]1CCC[C@@H]1OCc1ccc(-c2ccc3c(c2)CCC3N2CCN(CCO)CC2)cc1 (stereo partly drawn) [Example 82, 6-amino-2′-fluoro-N-{(1S,2S)-2-[(4-{1-[4-(2-hydroxyethyl)piperazin-1-yl]-2,3-dihydro-1H-inden-5-yl}phenyl)methoxy]cyclopentyl}[3,3′-bipyridine]-5-carboxamide] | 100 to 1000 | – | < 10 |
| Nc1ncc(-c2cccnc2F)cc1C(=O)N[C@H]1CCC[C@@H]1OCc1ccc(-c2ccc3c(c2)CCC[C@@H]3N2CCN(C[C@H](O)CO)CC2)cc1 [Example 173, 6-amino-N-[(1S,2S)-2-({4-[(5S)-5-{4-[(2S)-2,3-dihydroxypropyl]piperazin-1-yl}-5,6,7,8-tetrahydronaphthalen-2-yl]phenyl}methoxy)cyclopentyl]-2′-fluoro[3,3′-bipyridine]-5-carboxamide] | 10 to 100 | – | < 10 |
| Nc1ncc(-c2cccnc2F)cc1C(=O)N[C@H]1CCC[C@@H]1OCc1ccc(-c2ccc3c(c2)CC[C@@H]3N2CCN(C[C@@H](O)CO)CC2)cc1 [Example 167, 6-amino-N-[(1S,2S)-2-({4-[(1S)-1-{4-[(2R)-2,3-dihydroxypropyl]piperazin-1-yl}-2,3-dihydro-1H-inden-5-yl]phenyl}methoxy)cyclopentyl]-2′-fluoro[3,3′-bipyridine]-5-carboxamide] | 100 to 1000 | – | < 10 |
| Nc1ncc(-c2ccc(F)nc2)cc1C(=O)N[C@H]1CCC[C@@H]1OCc1ccc(-c2ccc3c(c2)CC[C@@H]3N2CCN(CC(O)CO)CC2)cc1 (stereo partly drawn) [Example 100, 6-amino-N-{(1S,2S)-2-[(4-{(1S)-1-[4-(2,3-dihydroxypropyl)piperazin-1-yl]-2,3-dihydro-1H-inden-5-yl}phenyl)methoxy]cyclopentyl}-6′-fluoro[3,3′-bipyridine]-5-carboxamide] | 100 to 1000 | – | < 10 |

From patent publication US20260146035A1, “FUSED BICYCLIC COMPOUNDS AND THEIR USE AS MER AND AXL INHIBITORS” (DONG-A ST CO., LTD., priority 2022, published 2026)
